# Literature values, collected in patent publication US20120058205A1, “COMPOSITIONS AND TREATMENT REGIMES FOR REDUCING INFLAMMATION, END-ORGAN INJURY, AND/OR SYSTEMIC ENDOTOXEMIA” (priority 2009, published 2012).
# Legend:
# [1] = consistently above; also printed as 500 nmol/L; possible hypercalcemia and hyperphosphatemia
# [2] = animal model; also printed as ≦1,000 nmol/L
# aldosterone = settings: administration to diabetic patients
smiles,measurement,setting,value
"C=C1CC[C@H](O)C/C1=C/C=C1\CCC[C@]2(C)[C@@H]([C@H](C)CCCC(C)(C)O)CC[C@@H]12 [25(OH)D, 25-hydroxyvitamin D]",circulating half-life,in vivo,360 h
same,serum concentration considered potentially toxic,[1],above 200 ng/mL
same,concentrations that demonstrated no toxicity,[2],≤ 0.4 µg/mL
CC(=O)S[C@@H]1CC2=CC(=O)CC[C@]2(C)[C@H]2CC[C@@]3(C)[C@@H](CC[C@@]34CCC(=O)O4)[C@H]12 [spironolactone],increase of aldosterone levels,aldosterone,≥ 400%
"C=C1/C(=C\C=C2/CCC[C@]3(C)[C@@H]([C@H](C)CCCC(C)(C)O)CC[C@@H]23)C[C@@H](O)C[C@@H]1O [1,25(OH)2D, 1,25-dihydroxyvitamin D]",half-life,circulating,15 h
